Source: ChEMBL document CHEMBL4177704, “Synthesis and biological evaluation of water-soluble derivatives of chiral gossypol as HIV fusion inhibitors targeting gp41” (Bioorg Med Chem Lett, 2018)
Active and inactive are the calls of the source. The calls are words filed in the database; no cut-off is given here.

What was measured:
[1] = (§1) Cytotoxicity against human TZM-bl cells after 72 hrs by MTT assay; format: cell-based; conditions: TZM-bl cells
[2] = Selectivity index, ratio of CC50 for human TZM-bl cells to IC50 for HIV-1 3B infected in human TZM-bl cells; format: toxicity, cell-based; conditions: for selectivity ratio: TZM-bl cells, read-out: Ratio CC50/IC50
[3] = system: Human immunodeficiency virus 1; experiment: Antiviral activity against HIV-1 3B infected in human TZM-bl cells treated for 2 hrs followed by compound washout measured after 2 days by luciferase reporter assay; format: functional, organism-based
TZM = experiment: as §1; format: cell-based; conditions: tzm, 72 h
[4] = system: Human immunodeficiency virus 1; experiment: Antiviral activity against HIV-1 3B infected in human TZM-bl cells at 10 uM treated simultaneously with viral infection for 2 hrs followed by compound washout measured after 2 days by luciferase reporter assay; format: functional, organism-based
[5] = system: Human immunodeficiency virus 1; experiment: Antiviral activity against HIV-1 3B infected in human TZM-bl cells at 10 uM treated 2 to 6 hrs post infection for 2 hrs followed by compound washout measured after 2 days by luciferase reporter assay; format: functional, organism-based
[6] = Human immunodeficiency virus 1, 3B, TZM-bl

Molecule | CC50 at 72 h [1] | Ratio CC50/IC50 [2] | IC50 [3] | IC50 [3, 6] | CC50 (TZM) | selectivity ratio [2] | Activity [4] | Activity [5]
Cc1cc2c(c(O)c1-c1c(C)cc3c(c1O)/C(=C/NC(C)C(=O)NC(C)C(=O)NC(C)C(=O)[O-])C(=O)C(O)=C3C(C)C)/C(=C/NC(C)C(=O)NC(C)C(=O)NC(C)C(=O)[O-])C(=O)C(O)=C2C(C)C.[Na+].[Na+] (single isomer, unassigned; (+)) | 58.7 µM | 9.19 | 6.39 µM | – | – | – | – | –
Cc1cc2c(c(O)c1-c1c(C)cc3c(c1O)/C(=C/NC(C)C(=O)NCC(=O)[O-])C(=O)C(O)=C3C(C)C)/C(=C/NC(C)C(=O)NCC(=O)[O-])C(=O)C(O)=C2C(C)C.[Na+].[Na+] (single isomer, unassigned; (+)) | 61.1 µM | 14.28 | 4.28 µM | – | – | – | – | –
Cc1cc2c(c(O)c1-c1c(C)cc3c(c1O)/C(=C/NC(C)S(=O)(=O)[O-])C(=O)C(O)=C3C(C)C)/C(=C/NC(C)S(=O)(=O)[O-])C(=O)C(O)=C2C(C)C.[Na+].[Na+] (single isomer, unassigned; (+)) | 54.8 µM | 27.81 | – | 1.97 µM | – | – | – | –
Cc1cc2c(c(O)c1-c1c(C)cc3c(c1O)/C(=C/NC(CC(=O)[O-])C(=O)NC(C)C(=O)[O-])C(=O)C(O)=C3C(C)C)/C(=C/NC(CC(=O)[O-])C(=O)NC(C)C(=O)[O-])C(=O)C(O)=C2C(C)C.[Na+].[Na+].[Na+].[Na+] (single isomer, unassigned; (-)) | – | 34.1 | 1.25 µM | – | 42.6 µM | – | – | –
Cc1cc2c(c(O)c1-c1c(C)cc3c(c1O)/C(=C/NC(C)C(=O)NC(C)C(=O)NC(C)C(=O)[O-])C(=O)C(O)=C3C(C)C)/C(=C/NC(C)C(=O)NC(C)C(=O)NC(C)C(=O)[O-])C(=O)C(O)=C2C(C)C.[Na+].[Na+] (single isomer, unassigned; (-)) | – | 27.19 | 1.45 µM | – | 39.4 µM | – | – | –
Cc1cc2c(c(O)c1-c1c(C)cc3c(c1O)/C(=C/NC(C)C(=O)NCC(=O)O)C(=O)C(O)=C3C(C)C)/C(=C/NC(C)C(=O)NCC(=O)O)C(=O)C(O)=C2C(C)C (single isomer, unassigned; (-)) | – | – | 1.56 µM | – | 40.3 µM | 25.8 | – | –
Cc1cc2c(c(O)c1-c1c(C)cc3c(c1O)/C(=C/NC(C)C(=O)NC(C)C(=O)O)C(=O)C(O)=C3C(C)C)/C(=C/NC(C)C(=O)NC(C)C(=O)O)C(=O)C(O)=C2C(C)C (single isomer, unassigned; (-)) | – | – | – | – | – | – | Active | inactive
Cc1cc2c(c(O)c1-c1c(C)cc3c(c1O)/C(=C/NC(C)S(=O)(=O)O)C(=O)C(O)=C3C(C)C)/C(=C/NC(C)S(=O)(=O)O)C(=O)C(O)=C2C(C)C (single isomer, unassigned; (-)) | – | – | – | – | – | – | Active | inactive
Cc1cc2c(c(O)c1-c1c(C)cc3c(c1O)/C(=C/N[C@@H]1[C@@H](O)[C@H](O)[C@@H](CO)O[C@H]1O)C(=O)C(O)=C3C(C)C)/C(=C/N[C@@H]1[C@@H](O)[C@H](O)[C@@H](CO)O[C@H]1O)C(=O)C(O)=C2C(C)C (stereo in doubt; (+)-1b) | 32.9 µM | 4.3 | 7.64 µM | – | – | – | – | –
Cc1cc2c(c(O)c1-c1c(C)cc3c(c1O)/C(=C/NC(C)C(=O)NC(C)C(=O)[O-])C(=O)C(O)=C3C(C)C)/C(=C/NC(C)C(=O)NC(C)C(=O)[O-])C(=O)C(O)=C2C(C)C.[Na+].[Na+] (stereo in doubt; (+)-3b) | 59.5 µM | 10.22 | 5.82 µM | – | – | – | – | –
Cc1cc2c(c(O)c1-c1c(C)cc3c(c1O)/C(=C/NC(CC(=O)[O-])C(=O)NC(C)C(=O)[O-])C(=O)C(O)=C3C(C)C)/C(=C/NC(CC(=O)[O-])C(=O)NC(C)C(=O)[O-])C(=O)C(O)=C2C(C)C.[Na+].[Na+].[Na+].[Na+] (stereo in doubt; (+)-4b) | 51.2 µM | 9.56 | 5.35 µM | – | – | – | – | –
Cc1cc2c(c(O)c1-c1c(C)cc3c(c1O)/C(=C/NC(C)C(=O)NC(Cc1ccccc1)C(=O)[O-])C(=O)C(O)=C3C(C)C)/C(=C/NC(C)C(=O)NC(Cc1ccccc1)C(=O)[O-])C(=O)C(O)=C2C(C)C.[Na+].[Na+] (stereo in doubt; (+)-5b) | 50.3 µM | 7.97 | 6.32 µM | – | – | – | – | –
Cc1cc2c(c(O)c1-c1c(C)cc3c(c1O)/C(=C/NCC(=O)NCC(=O)NCC(=O)[O-])C(=O)C(O)=C3C(C)C)/C(=C/NCC(=O)NCC(=O)NCC(=O)[O-])C(=O)C(O)=C2C(C)C.[Na+].[Na+] (stereo in doubt; (+)-6b) | 62.4 µM | 9.42 | 6.62 µM | – | – | – | – | –
Cc1cc2c(c(O)c1-c1c(C)cc3c(c1O)/C(=C/N[C@@H](C)C(=O)[O-])C(=O)C(O)=C3C(C)C)/C(=C/N[C@@H](C)C(=O)[O-])C(=O)C(O)=C2C(C)C.[Na+].[Na+] (stereo in doubt; (+)-8b) | 72.6 µM | 17.59 | 4.13 µM | – | – | – | – | –
Cc1cc2c(c(O)c1-c1c(C)cc3c(c1O)/C(=C/N[C@H](C(=O)[O-])C(C)C)C(=O)C(O)=C3C(C)C)/C(=C/N[C@H](C(=O)[O-])C(C)C)C(=O)C(O)=C2C(C)C.[Na+].[Na+] (stereo in doubt; (+)-9b) | 63.8 µM | 10.78 | 5.92 µM | – | – | – | – | –
Cc1cc2c(c(O)c1-c1c(C)cc3c(c1O)/C(=C/N[C@@H](CC(C)C)C(=O)[O-])C(=O)C(O)=C3C(C)C)/C(=C/N[C@@H](CC(C)C)C(=O)[O-])C(=O)C(O)=C2C(C)C.[Na+].[Na+] (stereo in doubt; (+)-10b) | 60.1 µM | 8.4 | 7.16 µM | – | – | – | – | –
CC[C@H](C)[C@H](N/C=C1\C(=O)C(O)=C(C(C)C)c2cc(C)c(-c3c(C)cc4c(c3O)/C(=C/N[C@H](C(=O)[O-])[C@@H](C)CC)C(=O)C(O)=C4C(C)C)c(O)c21)C(=O)[O-].[Na+].[Na+] (stereo in doubt; (+)-11b) | 73.9 µM | 17.5 | 4.22 µM | – | – | – | – | –
Cc1cc2c(c(O)c1-c1c(C)cc3c(c1O)/C(=C/N[C@@H](Cc1c[nH]c4ccccc14)C(=O)[O-])C(=O)C(O)=C3C(C)C)/C(=C/N[C@@H](Cc1c[nH]c3ccccc13)C(=O)[O-])C(=O)C(O)=C2C(C)C.[Na+].[Na+] (stereo in doubt; (+)-12b) | 57 µM | 6.29 | 9.06 µM | – | – | – | – | –
Cc1cc2c(c(O)c1-c1c(C)cc3c(c1O)/C(=C/N[C@@H](Cc1ccccc1)C(=O)[O-])C(=O)C(O)=C3C(C)C)/C(=C/N[C@@H](Cc1ccccc1)C(=O)[O-])C(=O)C(O)=C2C(C)C.[Na+].[Na+] (stereo in doubt; (+)-13b) | 53.8 µM | 6.55 | – | 8.21 µM | – | – | – | –
Cc1cc2c(c(O)c1-c1c(C)cc3c(c1O)/C(=C/N[C@@H]1[C@@H](O)[C@H](O)[C@@H](CO)O[C@H]1O)C(=O)C(O)=C3C(C)C)/C(=C/N[C@@H]1[C@@H](O)[C@H](O)[C@@H](CO)O[C@H]1O)C(=O)C(O)=C2C(C)C (stereo in doubt; (-)-1a) | – | – | – | – | – | – | Active | inactive
Cc1cc2c(c(O)c1-c1c(C)cc3c(c1O)/C(=C/NC(C)C(=O)NC(Cc1ccccc1)C(=O)[O-])C(=O)C(O)=C3C(C)C)/C(=C/NC(C)C(=O)NC(Cc1ccccc1)C(=O)[O-])C(=O)C(O)=C2C(C)C.[Na+].[Na+] (stereo in doubt; (-)-5a) | – | 20.57 | 1.62 µM | – | 33.3 µM | – | – | –
Cc1cc2c(c(O)c1-c1c(C)cc3c(c1O)/C(=C/NCC(=O)NCC(=O)NCC(=O)[O-])C(=O)C(O)=C3C(C)C)/C(=C/NCC(=O)NCC(=O)NCC(=O)[O-])C(=O)C(O)=C2C(C)C.[Na+].[Na+] (stereo in doubt; (-)-6a) | – | 31.71 | 1.38 µM | – | 43.8 µM | – | – | –
Cc1cc2c(c(O)c1-c1c(C)cc3c(c1O)/C(=C/N[C@@H](C)C(=O)[O-])C(=O)C(O)=C3C(C)C)/C(=C/N[C@@H](C)C(=O)[O-])C(=O)C(O)=C2C(C)C.[Na+].[Na+] (stereo in doubt; (-)-8a) | – | 183.29 | 0.35 µM | – | 64.2 µM | – | – | –
Cc1cc2c(c(O)c1-c1c(C)cc3c(c1O)/C(=C/N[C@H](C(=O)[O-])C(C)C)C(=O)C(O)=C3C(C)C)/C(=C/N[C@H](C(=O)[O-])C(C)C)C(=O)C(O)=C2C(C)C.[Na+].[Na+] (stereo in doubt; (-)-9a) | – | 101.82 | 0.49 µM | – | 49.9 µM | – | – | –
Cc1cc2c(c(O)c1-c1c(C)cc3c(c1O)/C(=C/N[C@@H](CC(C)C)C(=O)[O-])C(=O)C(O)=C3C(C)C)/C(=C/N[C@@H](CC(C)C)C(=O)[O-])C(=O)C(O)=C2C(C)C.[Na+].[Na+] (stereo in doubt; (-)-10a) | – | 78.41 | 0.68 µM | – | 53.3 µM | – | – | –
CC[C@H](C)[C@H](N/C=C1\C(=O)C(O)=C(C(C)C)c2cc(C)c(-c3c(C)cc4c(c3O)/C(=C/N[C@H](C(=O)[O-])[C@@H](C)CC)C(=O)C(O)=C4C(C)C)c(O)c21)C(=O)[O-].[Na+].[Na+] (stereo in doubt; (-)-11a) | – | 132.29 | 0.47 µM | – | 62.2 µM | – | – | –
Cc1cc2c(c(O)c1-c1c(C)cc3c(c1O)/C(=C/N[C@@H](Cc1c[nH]c4ccccc14)C(=O)[O-])C(=O)C(O)=C3C(C)C)/C(=C/N[C@@H](Cc1c[nH]c3ccccc13)C(=O)[O-])C(=O)C(O)=C2C(C)C.[Na+].[Na+] (stereo in doubt; (-)-12a) | – | 44.66 | 1.08 µM | – | 48.2 µM | – | – | –
Cc1cc2c(c(O)c1-c1c(C)cc3c(c1O)/C(=C/N[C@@H](Cc1ccccc1)C(=O)O)C(=O)C(O)=C3C(C)C)/C(=C/N[C@@H](Cc1ccccc1)C(=O)O)C(=O)C(O)=C2C(C)C (stereo in doubt; (-)-13a) | – | – | 6.99 µM | – | 37.7 µM | 5.39 | – | –
Cc1cn([C@H]2C[C@H](N=[N+]=[N-])[C@@H](CO)O2)c(=O)[nH]c1=O [ZIDOVUDINE] | – | – | – | 0.0028 µM | – | – | Active | inactive
enfuvirtide | – | – | – | 0.0905 µM | – | – | Active | inactive
